Results published in patent publication EP4631937A1, “CRYSTALLINE FORM OR AMORPHOUS FORM OF OXOISOINDOLE-5-FORMAMIDE COMPOUND OR SALT AND SOLVATE THEREOF” (Hangzhou Glubio Pharmaceutical Co., Ltd., priority 2022, dated 2024).

Experiments:
[1] = Hygroscopicity test by DVS, with XRPD after DVS; type: physicochemical; settings: for 2nd adsorption weight change percentage / 2nd desorption weight change percentage / 1st adsorption weight change percentage / 1st desorption weight change percentage / XRPD after DVS test / moisture adsorbed (DVS): 25 °C; for XRPD after DVS test: after 40-0-95-0-40% RH
Protocol: • DVS Intrinsic Dynamic Vapor Sorption Instrument • Gas flow rate 200 sccm, furnace temperature 25 °C.
(§1) The hygroscopicity and dehydration behavior of crystalline form B was investigated by DVS. Humidity program: 25 °C, 40-0-95-0-40% RH, dm/dt 0.002, shortest equilibrium time was 60 min, and longest equilibrium time was 360 min. XRPD was also performed on the samples after DVS test to determine whether the crystal transformation occurred.
as §1, with “E” for “B”
as §1, with “G” for “B”

[2] = Stability test of crystalline forms (open container at 25°C/92% RH and 40°C/75% RH, sealed container at 60°C, 13 days; XRPD, HPLC, colour); type: physicochemical; settings: for Color / Solid (XRPD) / Chiral purity / Chemical purity: Solid; for Chiral purity / Chemical purity: HPLC/SFC
[3] = as above; type: physicochemical; settings: for Initial purity (HPLC/SFC) Chemical purity / Initial purity (HPLC/SFC) Chiral purity: before storage
Protocol: Placed in a open container at 25°C/92% RH and 40°C/75% RH for 13 days, respectively, or in a sealed container at 60°C for 13 days. […]
(§2) Placed in a open container at 25 °C/92% RH and 40 °C/75% RH for 13 days, respectively, or in a sealed container at 60 °C for 13 days. […]
as §2

[4] = Pharmacokinetic evaluation in mice by gavage; type: in vivo; set-up: AUClast /D: unit not given here; settings: CD1 male mice, oral, 30 mg/kg
Protocol: CD1 male mice were selected and the test compound was administered orally. The drug concentration in plasma at different time points was quantitatively determined by LC/MS/MS to evaluate the pharmacokinetic characteristics of the test drug in mice.
Experimental materials: CD1 Mouse (male, 20-30 g, 6-8 weeks old, Zhejiang Weitong Lihua).
Blood was collected from the dorsal plantar vein at 0.25 h, 0.5 h, 1 h, 2 h, 4 h, 6 h, 8 h and 24 h after administration, placed in an anticoagulant tube containing EDTA-K2 and mixed, and centrifuged at 4°C and 4000 g for 5 minutes. The drug concentration in blood was determined by LC-MS/MS, and the relevant pharmacokinetic parameters were calculated by the non-compartmental linear/log trapezoidal method using Phoenix WinNonlin 6.3 pharmacokinetic software.

[5] = relative humidity 0%, listed as Crystalline form B
[6] = relative humidity 10%, listed as Crystalline form B
[7] = relative humidity 20%, listed as Crystalline form B
[8] = relative humidity 30%, listed as Crystalline form B
[9] = relative humidity 40%, listed as Crystalline form B
[10] = relative humidity 50%, listed as Crystalline form B
[11] = relative humidity 60%, listed as Crystalline form B
[12] = relative humidity 70%, listed as Crystalline form B
[13] = relative humidity 80%, listed as Crystalline form B
[14] = relative humidity 90%, listed as Crystalline form B
[15] = relative humidity 95%, listed as Crystalline form B
[16] = 25 °C/92% RH, open container, 13 days
[17] = 40 °C/75% RH, open container, 13 days
[18] = 60 °C, sealed container, 13 days
[19] = Solid, 40 °C/75% RH, open container, 13 days
[20] = relative humidity 0%, listed as Crystalline form E
[21] = relative humidity 10%, listed as Crystalline form E
[22] = relative humidity 20%, listed as Crystalline form E
[23] = relative humidity 30%, listed as Crystalline form E
[24] = relative humidity 40%, listed as Crystalline form E
[25] = relative humidity 50%, listed as Crystalline form E
[26] = relative humidity 60%, listed as Crystalline form E
[27] = relative humidity 70%, listed as Crystalline form E
[28] = relative humidity 80%, listed as Crystalline form E
[29] = relative humidity 90%, listed as Crystalline form E
[30] = relative humidity 95%, listed as Crystalline form E
[31] = 25 °C/92% RH, open container, 1 week, listed as Crystalline form E
[32] = 40 °C/75% RH, open container, 1 week, listed as Crystalline form E
[33] = 60 °C, sealed container, 1 week, listed as Crystalline form E
[34] = mouse, plasma, 25 mM citrate buffer (pH 3) containing 5% Tween 80

O=C1CC[C@H](N2Cc3cc(C(=O)N[C@H](c4ccc(Cl)cn4)C4CCC4)ccc3C2=O)C(=O)N1 [crystalline form B, N-((S)-(5-chloropyridin-2-yl)(cyclobutyl)methyl)-2-((S)-2,6-dioxopiperidin-3-yl)-1-oxoisoindoline-5-carboxamide]
2nd adsorption weight change percentage ([1]; relative humidity 0%): 0.0% | 2nd desorption weight change percentage ([1]; relative humidity 0%): 0.0% | 1st adsorption weight change percentage [1, 5]: 1.6% | 1st desorption weight change percentage [1, 5]: 1.6% | 1st adsorption weight change percentage [1, 6]: 2.0% | 1st desorption weight change percentage [1, 6]: 2.0% | 2nd adsorption weight change percentage [1, 6]: 0.4% | 2nd desorption weight change percentage [1, 6]: 0.4% | 1st adsorption weight change percentage [1, 7]: 2.7% | 1st desorption weight change percentage [1, 7]: 2.7% | 2nd adsorption weight change percentage [1, 7]: 1.1% | 2nd desorption weight change percentage [1, 7]: 1.1% | 1st adsorption weight change percentage [1, 8]: 3.2% | 1st desorption weight change percentage [1, 8]: 3.3% | 2nd adsorption weight change percentage [1, 8]: 1.7% | 2nd desorption weight change percentage [1, 8]: 1.7% | 1st adsorption weight change percentage [1, 9]: 3.7% | 1st desorption weight change percentage [1, 9]: 3.8% | 2nd adsorption weight change percentage [1, 9]: 2.2% | 2nd desorption weight change percentage [1, 9]: 2.3% | 1st adsorption weight change percentage [1, 10]: 4.5% | 2nd desorption weight change percentage [1, 10]: 3.3% | 1st adsorption weight change percentage [1, 11]: 5.0% | 2nd desorption weight change percentage [1, 11]: 3.9% | 1st adsorption weight change percentage [1, 12]: 5.4% | 2nd desorption weight change percentage [1, 12]: 5.4% | 1st adsorption weight change percentage [1, 13]: 5.9% | 2nd desorption weight change percentage [1, 13]: 5.9% | 1st adsorption weight change percentage [1, 14]: 6.9% | 2nd desorption weight change percentage [1, 14]: 7.3% | 1st adsorption weight change percentage [1, 15]: 9.2% | 2nd desorption weight change percentage [1, 15]: 9.2% | XRPD after DVS test ([1]; listed as Crystalline form B): The crystal form did not change, see Figure 18b | stability (crystal form) ([1]; hygroscopic tests of Table 17, Table 18 and Table 19, DVS 25 °C, 40-0-95-0-40% RH): the crystal form did not change | moisture adsorbed (DVS) ([1]; under 40%RH-80%RH): 2.2% | moisture adsorbed (DVS) ([1]; under 40%RH-95%RH, listed as Crystalline form B): 5.5% | Color [2, 16]: No color change | Solid (XRPD) [2, 16]: The crystal form did not change, see Figure 15e | Chiral purity [2, 16]: 98.8% See Figure 15d | Chemical purity [2, 17]: 97.9% See Figure 15f | Chiral purity [2, 17]: 98.8% See Figure 15g | Color [2, 18]: No color change | Solid (XRPD) [2, 18]: The crystal form did not change, see Figure 15e | Chemical purity [2, 18]: 97.8% See Figure 15h | Chiral purity [2, 18]: 98.9% See Figure 15i | stability (crystal form) ([2]; stability tests of Table 14, Table 15 and Table 16, 25°C/92% RH, 40°C/75% RH, 60°C, 13 days): the crystal form did not change | Chemical purity ([3]; Solid, 25 °C/92% RH, open container, 13 days, HPLC/SFC): 99.2% See Figure 15c | Color [3, 19]: No color change | Solid (XRPD) [3, 19]: The crystal form did not change, see Figure 15e | Initial purity (HPLC/SFC) Chemical purity ([3]; listed as Crystalline form B): 99.5% See Figure 15a | Initial purity (HPLC/SFC) Chiral purity ([3]; listed as Crystalline form B): 99.0% See Figure 15b

O=C1CC[C@H](N2Cc3cc(C(=O)N[C@H](c4ccc(Cl)cn4)C4CCC4)ccc3C2=O)C(=O)N1 [crystalline form E, N-((S)-(5-chloropyridin-2-yl)(cyclobutyl)methyl)-2-((S)-2,6-dioxopiperidin-3-yl)-1-oxoisoindoline-5-carboxamide]
1st adsorption weight change percentage [1, 20]: 0.1% | 1st desorption weight change percentage [1, 20]: 0.1% | 1st adsorption weight change percentage [1, 21]: 0.3% | 1st desorption weight change percentage [1, 21]: 0.3% | 2nd adsorption weight change percentage [1, 21]: 0.3% | 2nd desorption weight change percentage [1, 21]: 0.3% | 1st adsorption weight change percentage [1, 22]: 1.3% | 1st desorption weight change percentage [1, 22]: 1.3% | 2nd adsorption weight change percentage [1, 22]: 1.3% | 2nd desorption weight change percentage [1, 22]: 1.3% | 1st adsorption weight change percentage [1, 23]: 1.6% | 1st desorption weight change percentage [1, 23]: 1.6% | 2nd adsorption weight change percentage [1, 23]: 1.6% | 2nd desorption weight change percentage [1, 23]: 1.6% | 1st adsorption weight change percentage [1, 24]: 2.0% | 1st desorption weight change percentage [1, 24]: 2.0% | 2nd adsorption weight change percentage [1, 24]: 2.0% | 2nd desorption weight change percentage [1, 24]: 2.0% | 1st adsorption weight change percentage [1, 25]: 2.7% | 2nd desorption weight change percentage [1, 25]: 2.8% | 1st adsorption weight change percentage [1, 26]: 3.1% | 2nd desorption weight change percentage [1, 26]: 3.3% | 1st adsorption weight change percentage [1, 27]: 3.5% | 2nd desorption weight change percentage [1, 27]: 3.5% | 1st adsorption weight change percentage [1, 28]: 3.6% | 2nd desorption weight change percentage [1, 28]: 3.6% | 1st adsorption weight change percentage [1, 29]: 3.8% | 2nd desorption weight change percentage [1, 29]: 3.8% | 1st adsorption weight change percentage [1, 30]: 4.0% | 2nd desorption weight change percentage [1, 30]: 4.0% | XRPD after DVS test ([1]; listed as Crystalline form E): The crystal form did not change, see Figure 19b | moisture adsorbed (DVS) ([1]; under 40%RH-95%RH, listed as Crystalline form E): 2.0% of moisture was adsorbed under 40%RH-95%RH, see Figure 19a | Color ([2]; 25 °C/92% RH, open container, 1 week): No color change | Chemical purity [2, 31]: 98.3% See Figure 16c | Chiral purity [2, 31]: 98.6% See Figure 16d | Solid (XRPD) [2, 31]: The crystal form did not change, see Figure 16e | Color ([2]; 40 °C/75% RH, open container, 1 week): No color change | Chemical purity [2, 32]: 98.6% See Figure 16f | Chiral purity [2, 32]: 98.6% See Figure 16g | Solid (XRPD) [2, 32]: The crystal form did not change, see Figure 16e | Color ([2]; 60 °C, sealed container, 1 week): No color change | Chemical purity [2, 33]: 98.8% See Figure 16h | Chiral purity [2, 33]: 98.7% See Figure 16i | Solid (XRPD) [2, 33]: The crystal form did not change, see Figure 16e | Initial purity (HPLC/SFC) Chemical purity ([3]; listed as Crystalline form E): 99.3% See Figure 16a | Initial purity (HPLC/SFC) Chiral purity ([3]; listed as Crystalline form E): 98.7% See Figure 16b

O=C1CC[C@H](N2Cc3cc(C(=O)N[C@H](c4ccc(Cl)cn4)C4CCC4)ccc3C2=O)C(=O)N1 [Amorphous]
AUClast /D ([4]; 25 mM citrate buffer (pH 3) containing 5% Tween 80, dose-normalised): 1178 ± 116 | AUC(0-inf) [4, 34]: 35.9 ± 3.76 µg·h/mL | AUC(0-t) [4, 34]: 35.3 ± 3.48 µg·h/mL | Cmax [4, 34]: 17.8 ± 3.13 µg/mL | Tmax [4, 34]: 0.42 h | half-life [4, 34]: 3.1 h
